Results taken from PMC10525927, “First Generation of Antioxidant Precursors for Bioisosteric Se-NSAIDs: Design, Synthesis, and In Vitro and In Vivo Anticancer Evaluation” (Antioxidants, 2023).
Read-outs that look alike come from different tables or passages of the source.

Legend:
[1] = DPPH radical scavenging assay; conditions: positive controls, each time point and concentration (0.03 and 0.06 mg/mL)
Procedure: Briefly, the compounds were dissolved at a concentration of 1 mg/mL in absolute methanol, and a dilution was prepared. […] Then, 100 µL of the DPPH solution was added to 100 µL of the compounds’ solution to a final concentration of 0.03 mg/mL or 0.06 mg/mL, and the decolorization of the purple radical to the yellowish reduced form was followed by recording the absorbance at 517 nm. Ascorbic acid (Asc) and Trolox were used as positive controls. Both of them, Asc and Trolox, were purchased from Sigma-Aldrich. Determinations were recorded at eight different time intervals from 0 to 120 min on a BioTeck PowerWave XS spectrophotometer, and the data were collected using KCJunior version 1.41. software. All the measurements were carried out in triplicate. Results are expressed as the percentage of the radical scavenged, calculated using the following formula: % DPPH radical scavenging = [(Acontrol − Asample)/Acontrol] × 100, wherein Acontrol refers to the absorbance of the negative control and Asample refers to the absorbance of the tested compounds.

[2] = system: T-47D breast cancer cells; set-up: method as in PMID 26750401, PMID 32987314, PMID 33799070, PMID 36257283; conditions: MTT; parent NSAIDs for reference, some values obtained from the literature; cited from earlier work
[3] = system: HCT-116 colon cancer cells; set-up: method as in PMID 26750401, PMID 32987314, PMID 33799070, PMID 36257283; conditions: MTT; parent NSAIDs for reference, some values obtained from the literature; cited from earlier work
[4] = system: A549 lung cancer cells; set-up: method as in PMID 26750401, PMID 32987314, PMID 33799070, PMID 36257283; conditions: MTT; parent NSAIDs for reference, some values obtained from the literature; cited from earlier work
[5] = system: PC-3 prostate cancer cells; set-up: method as in PMID 26750401, PMID 32987314, PMID 33799070, PMID 36257283; conditions: MTT; parent NSAIDs for reference, some values obtained from the literature; cited from earlier work
[6] = system: HT-29 colon cancer cells; set-up: method as in PMID 26750401, PMID 32987314, PMID 33799070, PMID 36257283; conditions: MTT; parent NSAIDs for reference, some values obtained from the literature; cited from earlier work
[7] = system: H1299 lung cancer cells; set-up: method as in PMID 26750401, PMID 32987314, PMID 33799070, PMID 36257283; conditions: MTT; parent NSAIDs for reference, some values obtained from the literature; cited from earlier work
[8] = system: MDA-MB-231 breast cancer cells; set-up: method as in PMID 26750401, PMID 32987314, PMID 33799070, PMID 36257283; conditions: MTT; parent NSAIDs for reference, some values obtained from the literature; cited from earlier work
[9] = system: DU-145 prostate cancer cells; set-up: method as in PMID 26750401, PMID 32987314, PMID 33799070, PMID 36257283; conditions: MTT; parent NSAIDs for reference, some values obtained from the literature; cited from earlier work
[10] = system: H1299 lung cancer cells; test: MTT cell viability assay, H1299; format: cell-based; conditions: Homo sapiens, NCI-H1299, 48 h, mean ± SD
Procedure: (§1) The cell lines were purchased from the American Type Culture Collection (ATCC). The cancer cell lines DU-145, PC-3, T-47D, MDA-MB-231, H1299, and A549, and the non-tumorigenic cells (184B5 and BEAS-2B), were maintained in RPMI 1640 medium (Gibco, Alcobendas, Madrid, Spain) supplemented with 10% fetal bovine serum (FBS; Gibco) and 1% antibiotics (10.00 units/mL penicillin and 10.00 mg/mL streptomycin; Gibco). Colon cancer cells HT-29 and HCT-116 were cultured in McCoy’s 5A medium (Gibco) supplemented with 10% fetal bovine serum (FBS; Gibco) and 1% antibiotics (10.00 units/mL penicillin and 10.00 mg/mL streptomycin; Gibco). Cells were maintained in tissue culture flasks at 37 °C and 5% CO2. The culture medium was replaced every three days.
(§2) The antiproliferative activity and selectivity in vitro of the Se-NSAID derivatives were determined by the (3-(4,5-dimethylthiazol-2-yl)-2,5-diphenyltetrazolium bromide) (MTT) assay. Compounds were dissolved in DMSO at a concentration of 0.01 M and serial dilutions were prepared. The Se-NSAID derivatives were tested at seven concentrations ranging between 1 and 100 µM in the colon (HT-29 and HCT-116), prostate (DU-145 and PC-3), breast (MDA-MB-231 and T-47D), and lung (H1299 and A549) cancer cell lines. The non-tumorigenic breast (184B5) and lung (BEAS-2B) cell lines were also tested to assess the selectivity of the compounds following the same procedure. A total of 1 × 10^4 cells were seeded per well in 96-well plates and incubated at 5% CO2 and 37 °C for 24 h. Then, cells were treated with either DMSO or increasing concentrations of the corresponding Se-NSAID derivatives for 48 h. A volume of 20 µL of MTT (5 mg/mL) was added to each well 2.5 h before the termination point. At the end of the experiment, the medium was removed, and the resultant formazan crystals formed by mitochondrial reduction of MTT were dissolved in 50 µL of DMSO. Absorbance was measured at 550 nm. IC50, GI50, TGI, and LC50 values were calculated using OriginPro version 8.5.1. software by nonlinear curve fitting. Selectivity indexes (SI) were calculated as the ratio of the IC50 values determined for the nonmalignant and the tumoral cells in the breast (IC50 (184B5)/IC50 (MDA-MB-231) and IC50 (184B5)/IC50 (T-47D)) and lung (IC50 (BEAS-2B)/IC50 (H1299) and IC50 (BEAS-2B)/IC50 (A549)) cell lines. Data were obtained from at least three independent experiments performed in triplicates.

[11] = system: BEAS-2B non-tumorigenic lung (bronchial epithelium) cells; test: MTT cell viability assay, BEAS-2B; format: cell-based; conditions: 48 h, mean ± SD
Procedure: as §1, §2

[12] = system: DU-145 prostate cancer cells; test: MTT cell viability assay, DU-145; format: cell-based; conditions: Homo sapiens, DU-145, 48 h, mean ± SD
Procedure: as §1, §2

[13] = system: 184B5 non-tumorigenic breast (mammary gland) cells; test: MTT cell viability assay, 184B5; format: cell-based; conditions: mean ± SD
Procedure: as §1, §2

[14] = system: panel of eight cancer cell lines; test: MTT cell viability assay, statements on the whole panel; format: cell-based; conditions: 48 h, result in words
Procedure: as §1, §2

[15] = system: PC-3 prostate cancer cells; test: MTT cell viability assay, PC-3; format: cell-based; conditions: 48 h, mean ± SD
Procedure: as §1, §2

[16] = system: MDA-MB-231 breast cancer cells; test: MTT cell viability assay, MDA-MB-231; format: cell-based; conditions: Homo sapiens, MDA-MB-231, 48 h, mean ± SD
Procedure: as §1, §2

[17] = system: HCT-116 colon cancer cells; test: MTT cell viability assay, HCT-116; format: cell-based; conditions: mean ± SD
Procedure: as §1, §2

[18] = system: A549 lung cancer cells; test: MTT cell viability assay, A549; format: cell-based; conditions: Homo sapiens, A549, 48 h, mean ± SD
Procedure: as §1, §2

[19] = system: HT-29 colon cancer cells; test: MTT cell viability assay, HT-29; format: cell-based; conditions: Homo sapiens, HT-29, 48 h, mean ± SD
Procedure: as §1, §2

[20] = system: T-47D breast cancer cells; test: MTT cell viability assay, T-47D; format: cell-based; conditions: 48 h, mean ± SD
Procedure: as §1, §2

Cc1c(C)c2c(c(C)c1O)CCC(C)(C(=O)O)O2 (centres unmarked) [Trolox, reference compound]
maximal scavenging activity: DPPH radical scavenging activity [1]

CC(C(=O)O)c1cccc(C(=O)c2ccccc2)c1 (centres unmarked) [Ket, ketoprofen]
> 50 µM: IC50 [2] | IC50 [3] | IC50 [4] | IC50 [5] | IC50 [6] | IC50 [7] | IC50 [8] | IC50 [9]

CC(C)Cc1ccc(C(C)C(=O)O)cc1 (centres unmarked) [Ibup, ibuprofen]
> 50 µM: IC50 [2] | IC50 [3] | IC50 [4] | IC50 [5] | IC50 [6] | IC50 [7] | IC50 [8] | IC50 [9]

CC(=O)Oc1ccccc1C(=O)O [ASA, aspirin]
> 50 µM: IC50 [2] | IC50 [3] | IC50 [4] | IC50 [5] | IC50 [6] | IC50 [7] | IC50 [8] | IC50 [9]

COc1ccc2c(c1)c(CC(=O)[Se][Se]C(=O)Cc1c(C)n(C(=O)c3ccc(Cl)cc3)c3ccc(OC)cc13)c(C)n2C(=O)c1ccc(Cl)cc1 [Compound 2, 2-(1-(4-Chlorobenzoyl)-5-methoxy-2-methyl-1H-indol-3-yl)acetic diselenoperoxyanhydride]
39.0 ± 8.5 µM: TGI T-47D ([20]; in vitro TGI concentration, Table S1)
> 50 µM: IC50 [10] | IC50 [12] | IC50 [15] | IC50 [16] | IC50 ([17]; Homo sapiens, HCT-116, 48 h) | IC50 [18] | IC50 [19] | IC50 ([20]; Homo sapiens, T47D)
44.5 ± 3.4 µM: GI50 ([17]; Homo sapiens, HCT-116, 48 h, Table S1)
81.5 ± 2.3 µM: TGI HCT-116 ([17]; in vitro TGI concentration, 48 h, Table S1)
no activity: antiproliferative activity against all the eight cell lines [14]
58.4 ± 8.4 µM: GI50 ([12]; Table S1)
completely inactive: IC50 BEAS-2B ([11]; nonmalignant lung cells) | IC50 184B5 ([13]; 48 h, nonmalignant breast cells)
53.2 ± 1.2 µM: GI50 ([10]; Table S1)
> 100 µM: GI50 ([11]; Homo sapiens, BEAS-2B, Table S1) | IC50 ([11]; Homo sapiens, BEAS-2B, nonmalignant lung cells) | GI50 ([13]; Homo sapiens, 184B5, 48 h, Table S1) | IC50 ([13]; Homo sapiens, 184B5, 48 h, nonmalignant breast cells) | GI50 ([15]; Table S1) | GI50 ([18]; Table S1) | GI50 ([19]; Table S1)
23.1 ± 14.3 µM: GI50 ([16]; Table S1)
25.5 ± 10.2 µM: GI50 ([20]; Homo sapiens, T47D, Table S1)
